Test results published in publication PMC3907559, “KDT501, a Derivative from Hops, Normalizes Glucose Metabolism and Body Weight in Rodent Models of Diabetes” (PLoS ONE, 2014).

How the values were obtained:
THP-1 cells = assay: LPS-stimulated inflammatory mediators in THP-1 cells; assay type: cell-based, human; details: 1 hour pre-incubation, LPS 1 µg/mL overnight, various concentrations (KDT501 6.25 to 50 µM)
Procedure: THP-1 cells were maintained in RPMI1640 in the presence of 10% serum according to manufacturer's instructions as described earlier. The cells were pre-incubated with various concentrations of test compounds (KDT501, rosiglitazone, telmisartan, DHA or PGJ2) in the presence of 1% serum medium for 1 hour, then stimulated with TNF-α (10 ng/ml) or LPS (1 µg/ml) overnight (16–20 hours. Cytokines were assayed using a Milliplex MAP human cytokine/chemokine kit and Luminex 100™ IS. Data were analyzed using a five-parameter logistic method and represented as Mean ±SD of four independent samples.

3T3L1 adipocytes = assay: Lipogenesis in 3T3L1 adipocytes (Oil Red O); assay type: cell-based, murine; details: 10 µM, 6 days, relative to DMSO
Procedure: Murine 3T3-L1 preadipocytes were maintained in DMEM supplemented with 10% FBS as described earlier. Cells were seeded at an initial density of approximately 1.5×10^6 cells in 24-well plates. After confluence, cells were treated with KDT501 (25, 12.5, 6.25, and 3.25 µM), rosiglitazone (10 µM), or DMSO on day 0. Cells were differentiated in differentiation medium consisting of 10% FBS/DMEM, 0.5 mM methylisobutylxanthine, 0.5 µM dexamethasone, and 10 µg/mL insulin. After two days, the medium was changed to progression medium consisting of 10 µg/mL insulin in 10% FBS/DMEM followed by 2 more days in maintenance medium consisting of 10% FBS/DMEM. KDT501 or rosiglitazone were included throughout the maturation phase (day 6/day 7). Human subcutaneous primary adipocytes were maintained as described for 3T3L1 adipocytes and treated with rosiglitazone (1 µM), KDT501 (10 µM), telmisartan (10 µM), DHA (10 µM) or PGJ2 (10 µM) for 10 days. Intracellular lipid was quantified with Oil O-Red staining using an adipogenesis assay kit from (Millipore, Billerica, MA). The medium was carefully discarded and washed twice with PBS. 300 µL Of Oil O-Red solution were added and incubated for 15 minutes at room temperature. […] Absorbance was measured at 530 nm using a plate reader (Thermo Electron Corp.). Fold change relative to DMSO control was calculated from four independent wells for each condition. […]

[1] = tested on: human subcutaneous adipocytes; assay: Lipogenesis in human subcutaneous adipocytes (Oil Red O); assay type: cell-based; details: 10 days, relative to DMSO
Procedure: Murine 3T3-L1 preadipocytes were maintained in DMEM supplemented with 10% FBS as described earlier. Cells were seeded at an initial density of approximately […] in 24-well plates. After confluence, cells were treated with KDT501 ([…]), rosiglitazone (10 µM), or DMSO on day 0. Cells were differentiated in differentiation medium consisting of 10% FBS/DMEM, 0.5 mM methylisobutylxanthine, 0.5 µM dexamethasone, and 10 µg/mL insulin. After two days, the medium was changed to progression medium consisting of 10 µg/mL insulin in 10% FBS/DMEM followed by 2 more days in maintenance medium consisting of 10% FBS/DMEM. KDT501 or rosiglitazone were included throughout the maturation phase (day 6/day 7). Human subcutaneous primary adipocytes were maintained as described for 3T3L1 adipocytes and treated with rosiglitazone (1 µM), KDT501 (10 µM), telmisartan (10 µM), DHA (10 µM) or PGJ2 (10 µM) for 10 days. Intracellular lipid was quantified with Oil O-Red staining using an adipogenesis assay kit from (Millipore, Billerica, MA). The medium was carefully discarded and washed twice with PBS. 300 µL Of Oil O-Red solution were added and incubated for 15 minutes at room temperature. The cells were washed, and bound dye was extracted and transferred to a 96 well plate. Absorbance was measured at 530 nm using a plate reader (Thermo Electron Corp.). Fold change relative to DMSO control was calculated from four independent wells for each condition. Data represent Mean ± SD.

[2] = tested on: human subcutaneous adipocytes; assay: Gene expression profile and gene ontology in human subcutaneous adipocytes; assay type: cell-based; details: 5 days
Procedure: Human subcutaneous primary adipocytes were maintained as described earlier. Cells were seeded at an initial density of approximately 2×10^6 cells in 6-well plates with PGM-2 medium (2 mL medium/well) and allowed to grow for 24 hr to confluence. Cells were treated with test compounds KDT501 (25 µM), rosiglitazone (1 µM), telmisartan (10 µM), or DMSO in adipocyte differentiating medium. The differentiation medium consisted of indomethacin, methylisobutylxanthine, dexamethasone, and insulin from PGM-2 single aliquots. After 5 days, the cells were washed in PBS, frozen in liquid nitrogen and shipped to Expression Analysis (Durham, NC) in dry ice. Three independent plates were used for each condition. RNA was extracted using the miRNeasy Mini Kit (Qiagen) as described by the manufacturer. RNA was isolated and expression profiling was performed using the Ambion WT Expression Kit (Life Technologies). Labeled target, which was hybridized to GeneChip Human Gene 1.0 ST Arrays (Affymetrix), was prepared essentially as described by the manufacturer. This cDNA was then used as a template for in vitro transcription using T7 RNA Polymerase to produce anti-sense RNA, which was then converted into single-stranded sense cDNA that was fragmented and labeled with biotin prior to hybridization to the GeneChip Arrays. […]

RAW264.7 cells = assay: LPS-activated PGE2 and NO in RAW264.7 cells; assay type: cell-based; details: results not shown
DIO mice = assay: DIO mice, oral dosing twice daily (body fat, OGTT); assay type: in vivo, C57Bl6/J male mice; details: for OGTT glucose AUC / OGTT insulin AUC: four weeks, vs controls
Procedure: C57Bl6/J male mice were 15 weeks old at the start of the experiment. In general, DIO models are initiated at an early age to evaluate effects on obesity. However, older, overweight mice were used in this study to represent middle-aged human subjects for the assessment of metabolic parameters associated with weight loss/diabetes. The mice were housed individually in cages at 72±4°F with a relative humidity of 30–70% with 12 hour light- dark cycle. High fat diet (40% Cal) TD95217 (Teklad Custom Research Diet) was used in this study. The test compounds were administered orally twice per day at 12 hour intervals (10 mL/kg) in 0.5% methylcellulose and 0.2% Tween 80 (w/v). Mice were randomly allocated on the basis of body weight to seven groups (N = 10/group), with five animals for the oral glucose tolerance test (OGTT) and 5 animals for the insulin tolerance test. […] Body weight and food consumption were determined weekly. After 30 days, the mice were fasted overnight, blood was drawn through the tail vein and baseline blood glucose was measured using a glucose analyzer. One hour later, mice were given an oral gavage of glucose solution in water (4 ml/kg, 2 g/kg) and blood samples were taken at 15, 30, 60, and 120 min to determine plasma glucose and insulin levels. Five days before the start of the experiment (t = −5 days) and again at the end of the experiment (t = 28 days), body fat was determined using QNMR. With the exception of the group treated with 200 mg/kg KDT501, 10 animals/group were used in the determinations. Insulin and HbA1c glucose levels were determined on days 1, 15 and 29. Statistical calculations were performed (JMP version, SAS Institute, Cary, NC). One-way ANOVA with Dunnett's test for post hoc determinations were used to compare vehicle treated control. Data were expressed as mean ± SEM.

[3] = tested on: Zucker Diabetic Fatty (ZDF) rats; assay: ZDF rats, oral dosing twice daily (weight, HbA1c, glucose, OGTT); assay type: in vivo, rat
Procedure: Male ZDF rats were obtained from Charles River Laboratories at approximately 7 weeks of age. Rats were maintained ad lib on Purina #5008 diet, delivering approximately 17% of calories from fat. Animals with fasting glucose between 150–350 mg/dL were randomized based on glucose and body weight. Test articles were prepared in 0.5% (w/v) methylcellulose + 0.2% (w/v) Tween 80 and given by oral gavage twice daily. Rats (10/group, 6 treatment groups) were administered KDT501 (100, 150, or 200 mg/kg), metformin (200 mg/kg), pioglitazone (30 mg/kg) or vehicle control for up to 32 days. Body weights and food intake were determined weekly. Blood was collected via tail bleed and whole blood glucose was measured on days 1, 8, 15 and 29. Blood was collected in 5 animals on days 15 and 29 for determination of glucose, insulin, lipids, hematocrit, and HbA1c. Animals were fasted overnight and OGTT was conducted on days 31 and 32 for determination of glucose and insulin levels. A second ZDF rat study was conducted and the resulting data on total cholesterol are presented. Statistical calculations were performed (JMP version, SAS Institute, Cary, NC). One-way ANOVA with Dunnett's test for post hoc determinations were used to compare vehicle treated control. Data were expressed as mean ± SEM.

ZDF rats = assay: Second ZDF rat study (total cholesterol, triglycerides in plasma); assay type: in vivo; details: twice daily oral
Procedure: Blood was collected via tail bleed and whole blood glucose was measured on days 1, 8, 15 and 29. Blood was collected in 5 animals on days 15 and 29 for determination of glucose, insulin, lipids, hematocrit, and HbA1c. Animals were fasted overnight and OGTT was conducted on days 31 and 32 for determination of glucose and insulin levels. A second ZDF rat study was conducted and the resulting data on total cholesterol are presented. Statistical calculations were performed (JMP version, SAS Institute, Cary, NC). One-way ANOVA with Dunnett's test for post hoc determinations were used to compare vehicle treated control. Data were expressed as mean ± SEM.

PPARγ = biological target: T1, PPARγ (Homo sapiens, UniProt P37231); assay: PPARγ reporter assay (Indigo Biosciences); assay type: cell-based
T1 sequence (P37231 1-505): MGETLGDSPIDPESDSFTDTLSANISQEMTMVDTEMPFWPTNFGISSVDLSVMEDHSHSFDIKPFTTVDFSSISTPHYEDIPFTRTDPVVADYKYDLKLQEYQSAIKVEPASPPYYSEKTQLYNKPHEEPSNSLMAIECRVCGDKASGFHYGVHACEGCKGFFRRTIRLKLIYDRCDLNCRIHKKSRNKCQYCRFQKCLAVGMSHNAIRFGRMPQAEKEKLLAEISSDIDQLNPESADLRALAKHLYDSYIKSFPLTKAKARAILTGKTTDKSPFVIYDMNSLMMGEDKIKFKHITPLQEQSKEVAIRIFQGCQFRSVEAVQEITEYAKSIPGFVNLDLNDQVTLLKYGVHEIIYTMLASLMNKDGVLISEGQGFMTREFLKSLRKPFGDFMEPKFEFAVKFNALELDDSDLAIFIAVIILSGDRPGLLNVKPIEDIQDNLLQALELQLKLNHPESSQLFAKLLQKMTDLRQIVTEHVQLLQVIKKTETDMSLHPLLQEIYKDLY
Procedure: PPAR assay kits from Indigo Biosciences and supplemented protocols were used in this study. Briefly, the reporter cells were treated in triplicates with various concentrations of KDT501 (25–0.78 µM). Telmisartan (10–0.625 µM), GW590735 (10–0.03 µM), and GW0742 (1–0.01 µM) were used as positive controls for PPARγ, PPARα and PPARδ respectively. […]. Cells were incubated for 20 hours as per the protocol and read using a luminometer (Victor2, Perkin Elmer). Average relative light unit (RLU) values from blank wells were subtracted from all the samples. The final data were compared with DMSO control and statistical analyses were performed using GraphPad Prism.

## CN(CCOc1ccc(CC2SC(=O)NC2=O)cc1)c1ccccn1 (centres unmarked) [rosiglitazone]
THP-1 cells
  LPS stimulated IL-6: did not significantly affect
  LPS stimulated MCP-1: did not significantly affect
  LPS stimulated RANTES: did not significantly affect
3T3L1 adipocytes
  lipogenesis, fold increase: about 2.8 fold
[1]; 1 µM
  lipogenesis, fold increase: 10.3 fold
[2]; 1 µM
  number of transcripts stimulated at least 2-fold: 62
RAW264.7 cells
  induction of LPS-activated PGE2: not with rosiglitazone

## CN(C)C(=N)N=C(N)N [metformin]
DIO mice; 200 mg/kg twice per day oral
  OGTT glucose AUC: significantly reduced
  OGTT insulin AUC: significantly reduced
DIO mice; 200 mg/kg twice per day oral, vs vehicle
  fat mass by the end of the study (QNMR): Significant reduction
[3]; 200 mg/kg twice daily oral (metformin group)
  body weight: gained weight
ZDF rats; metformin group
  total cholesterol in plasma: neither metformin nor pioglitazone had this effect

## CCCc1nc2c(C)cc(-c3nc4ccccc4n3C)cc2n1Cc1ccc(-c2ccccc2C(=O)O)cc1 [telmisartan]
PPARγ
  EC50: 13.4 µM
THP-1 cells
  LPS stimulated IL-6: inhibited these cytokines in a concentration-dependent manner
  LPS stimulated MCP-1: inhibited these cytokines in a concentration-dependent manner
  LPS stimulated RANTES: inhibited these cytokines in a concentration-dependent manner
[1]; 10 µM
  lipogenesis, fold increase: 3.5 fold
[2]; 10 µM, 5 up and 3 down, common to rosiglitazone and KDT501
  number of transcripts changed: 8

## CC/C=C\C/C=C\C/C=C\C/C=C\C/C=C\C/C=C\CCC(=O)O [DHA]
THP-1 cells
  LPS stimulated IL-6: inhibited these cytokines in a concentration-dependent manner
  LPS stimulated MCP-1: inhibited these cytokines in a concentration-dependent manner
  LPS stimulated RANTES: inhibited these cytokines in a concentration-dependent manner
[1]; 10 µM
  lipogenesis, fold increase: No significant changes

## CCc1ccc(CCOc2ccc(CC3SC(=O)NC3=O)cc2)nc1 (centres unmarked) [pioglitazone]
DIO mice; 30 mg/kg twice per day oral
  OGTT glucose AUC: significantly reduced
  OGTT insulin AUC: significantly reduced
[3]; 30 mg/kg twice daily oral
  HbA1c at the end of the study: approximately half that of the vehicle-treated control
  body weight: gained weight
ZDF rats; pioglitazone group
  total cholesterol in plasma: neither metformin nor pioglitazone had this effect
ZDF rats; pioglitazone group, day 15 and day 30
  triglycerides in plasma: reduced triglycerides

## CCCCC/C=C/C=C1/C(=O)C=C[C@@H]1C/C=C\CCCC(=O)O [PGJ2, 5-deoxy-Δ12,14-PGJ2]
THP-1 cells
  LPS stimulated IL-6: inhibited these cytokines in a concentration-dependent manner
  LPS stimulated MCP-1: inhibited these cytokines in a concentration-dependent manner
  LPS stimulated RANTES: inhibited these cytokines in a concentration-dependent manner
[1]; 10 µM
  lipogenesis, fold increase: 8.8 fold
